Data set [1] has as its target T1, human Branched Chain Amino Acid Aminotransferase cytosolic form (hBCATc) (Homo sapiens, UniProt P54687).
T1 construct: inferred from purification on a Ni-charged chelating column with imidazole elution; made in house; host or cells: E. coli BL21(DE3)
T1 sequence (P54687 1-386): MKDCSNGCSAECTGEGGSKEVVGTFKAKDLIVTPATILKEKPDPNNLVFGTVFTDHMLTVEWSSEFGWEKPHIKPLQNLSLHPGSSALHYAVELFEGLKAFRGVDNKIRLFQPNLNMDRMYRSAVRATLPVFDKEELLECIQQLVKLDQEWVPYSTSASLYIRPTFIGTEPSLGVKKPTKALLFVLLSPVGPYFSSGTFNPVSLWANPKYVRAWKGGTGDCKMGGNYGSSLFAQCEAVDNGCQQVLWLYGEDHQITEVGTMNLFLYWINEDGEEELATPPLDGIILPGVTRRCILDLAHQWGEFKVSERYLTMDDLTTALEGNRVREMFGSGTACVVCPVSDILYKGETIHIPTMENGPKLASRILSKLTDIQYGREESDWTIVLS
Kind of data set: In vitro coupled enzyme assay, hBCATc. In kind it is biochemical. The settings on record: 37° C.; for IC50: 25 mM phosphate buffer pH 7.8, coupled glutamate dehydrogenase assay, read-out: hBCATc I50. As to the method:
In vitro enzyme assay—human Branched Chain Amino Acid Aminotransferase cytosolic form (hBCATc) and mitochondrial form (hBCATm) were assayed at 37° C. in 25 mM phosphate buffer pH 7.8. In addition, 2 mM DTT and 12.5 mM EDTA were added to the assay mixture. A coupling enzyme assay was used to monitor the production of glutamate. The formation of NADH from NAD+at […] was followed on a 96-well plate Molecular Devices plate reader. The following components were used in this coupled assay: 4 mM ADP, 1 mM NAD+, 750 μM L-Leucine, 500 μM (α-ketoglutarate, 10 μM pyridoxal phosphate, 1 unit glutamate dehydrogenase, and 1.25 μg of the appropriate BCAT enzyme. Inhibitions by compounds were assayed by adding various concentrations to this coupled assay procedure as a DMSO stock up to a 5% v/v DMSO/buffer ratio. Data is shown in Table 1.
Enzyme Preparation—humanBCATc was expressed in BL21(DE3) cells. A growing culture of cells was induced with 1 mM IPTG at room temperature overnight. These cells were harvested by centrifugation at 10,000 g for 20 minutes. The supernatant was discarded, and the cells were stored at −80° C. until needed. The protein was purified by the following method. The cell paste was resuspended in extraction buffer (0.1 M phosphate, pH 8.0, with 0.01 M Tris-HCL and 5 mM TCEP and then lysed on a French Press at 1000 psi. The lysate was centrifuged at 10,000 g for 15 minutes, and the pellet was discarded. The supernatant was loaded onto a Hitrap Chelating column previously charged with 0.1 M NiSO4 and washed with 3 to 4 column volumes of extraction buffer. The column was then washed with 0.01 Tris, pH 7.5, 10% glycerol, 150 mM NaCl, 5 mM TCEP for two column volumes. The column was then further washed with two column volumes of 0.1 M phosphate, pH 6.0, 0.01 M Tris, 10% glycerol and 750 mM NaCl. Finally, the column was washed with two column volumes of the same buffer plus 50 mM imidazole. The BCAT enzyme was then eluted with the same buffer but with 350 mM imidazole. The eluant was then dialyzed overnight against 10 mM phosphate buffer pH 8.0, 10% glycerol, and 5 mM TCEP. The dialyzed protein was then loaded onto a Q-sepharose column and eluted using a salt gradient. Active fractions were collected and further purified on a Superose-12 column to yield pure BCAT protein.

“And” between values parts separate entries of the source, which are not always exact repeats. Equal entries are not always repeated.

The melting point is the temperature, or range, at which the solid turns liquid.

Compound `COC(=O)/C=C1\SC(Nc2c(Cl)cccc2Cl)=NC1=O` (hydrate or solvate) [Example 1, [2-(2,6-Dichloro-phenylamino)-4-oxo-4H-thiazol-5-ylidene]-acetic Acid Methyl Ester] showed a melting point of 189.1 to 189.7 °C.

On to `CCOC(=O)/C=C1\SC(Nc2c(Cl)cccc2Cl)=NC1=O` (hydrate or solvate) [Example 2, [2-(2,6-Dichloro-phenylamino)-4-oxo-4H-thiazol-5-ylidene]-acetic Acid Ethyl Ester], for which the melting point was 185 to 185.8 °C.

For `CC(C)(C)OC(=O)/C=C1\SC(Nc2c(Cl)cccc2Cl)=NC1=O` (hydrate or solvate) [Example 3, [2-(2,6-Dichloro-phenylamino)-4-oxo-4H-thiazol-5-ylidene]-acetic Acid Tert-butyl Ester], the melting point was > 230 °C.

`COC(=O)/C=C1\SC(Nc2ccccc2C)=NC1=O` (hydrate or solvate) [Example 4, [2-(2-Methyl-phenylamino)-4-oxo-4H-thiazol-5-ylidene]-acetic Acid Methyl Ester] displayed a melting point of 200.7 to 201.2 °C.

In the case of `CNC(=O)/C=C1\SC(Nc2c(Cl)cccc2Cl)=NC1=O` (hydrate or solvate) [Example 6, [2-(2,6-Dichloro-phenylamino)-4-oxo-4H-thiazol-5-ylidene]-N-methyl-acetamide], the melting point is > 230 °C.

For the compound `CCNC(=O)/C=C1\SC(Nc2c(Cl)cccc2Cl)=NC1=O` (hydrate or solvate) [Example 7, [2-(2,6-Dichloro-phenylamino)-4-oxo-4H-thiazol-5-ylidene]-N-ethyl-acetamide], the melting point is > 250 °C.

Turning to `CCCNC(=O)/C=C1\SC(Nc2c(Cl)cccc2Cl)=NC1=O` (hydrate or solvate) [Example 8, [2-(2,6-Dichloro-phenylamino)-4-oxo-4H-thiazol-5-ylidene]-N-propyl-acetamide], the melting point is > 230 °C.

`CONC(=O)/C=C1\SC(Nc2c(Cl)cccc2Cl)=NC1=O` (hydrate or solvate) [Example 10, [2-(2,6-Dichloro-phenylamino)-4-oxo-4H-thiazol-5-ylidene]-N-methoxy-acetamide]: the melting point lay within 204.8 to 205.6 °C.

As for `O=C(O)/C=C1\SC(Nc2c(Cl)cccc2Cl)=NC1=O` [Example 5, [2-(2,6-Dichloro-phenylamino)-4-oxo-4H-thiazol-5-ylidene]-acetic Acid], the melting point was > 230 °C. Besides, the IC50 in data set [1] was 18.6 µM and 13.1 µM.

Consider `O=C(/C=C1\SC(Nc2c(Cl)cccc2Cl)=NC1=O)NCc1ccccc1` [Example 9, [2-(2,6-Dichloro-phenylamino)-4-oxo-4H-thiazol-5-ylidene]-N-benzyl-acetamide], for which the melting point was 204.8 to 205.6 °C. Besides, in data set [1], the IC50 was 33 µM and 24 µM.

`COC(=O)/C=C1\SC(Nc2ccc(Cl)cc2Cl)=NC1=O` [Example 11, [2-(2,4-Dichloro-phenylamino)-4-oxo-4H-thiazol-5-ylidene]-acetic Acid Methyl Ester] had a melting point of 211.6 to 212.3 °C. For the same compound, the IC50 in data set [1] was determined as 30.1 µM.

Regarding `COC(=O)/C=C1\SC(Nc2cc(Cl)ccc2Cl)=NC1=O` [Example 12, [2-(2,5-Dichloro-phenylamino)-4-oxo-4H-thiazol-5-ylidene]-acetic Acid Methyl Ester], the melting point is 198.8 to 199.4 °C. Moreover, in data set [1], the IC50 came out at 27.6 µM.

`COC(=O)/C=C1\SC(Nc2cccc(Cl)c2Cl)=NC1=O` [Example 13, [2-(2,3-Dichloro-phenylamino)-4-oxo-4H-thiazol-5-ylidene]-acetic Acid Methyl Ester] registered a melting point of 204 to 204.3 °C. The IC50 in data set [1] stood at 18.7 µM.

Compound `COC(=O)/C=C1\SC(Nc2c(Cl)cc(Cl)cc2Cl)=NC1=O` [Example 14, [2-(2,4,6-Trichloro-phenylamino)-4-oxo-4H-thiazol-5-ylidene]-acetic Acid Methyl Ester] had a melting point of 241.3 to 241.7 °C. For the same compound, in data set [1], the IC50 was 16.6 µM.

The compound `COC(=O)/C=C1\SC(Nc2ccccc2Cl)=NC1=O` [Example 15, [2-(2-Chloro-phenylamino)-4-oxo-4H-thiazol-5-ylidene]-acetic Acid Methyl Ester] displayed a melting point of 194 to 194.6 °C. Also, in data set [1], the IC50 came out at 19.5 µM.

Turning to `O=C(/C=C1\SC(Nc2c(Cl)cccc2Cl)=NC1=O)NC1CCCCCC1` [Example 39, N-Cycloheptyl-2-[2-(2,6-dichloro-phenylamino)-4-oxo-4H-thiazol-5-ylidene]-acetamide], the inhibition at 20 µM in data set [1] (@ 20 μM compound, pH 7.8 coupled assay, read-out: hBCATc Inhibit % @ 20 μM) amounted to 39%.

As to “N-(1-Benzyl-pyrrolidin-3-yl)-2-[2-(2,6-dichloro-phenylamino)-4-oxo-4H-thiazol-5-ylidene]-N-methyl-acetamide [Example 36]”, the “hBCATc Inhibit % @ 20 μM” value in data set [1] (@ 20 μM compound, pH 7.8 coupled assay) was “Inhibit 29% @ 20 μM”.

The values are drawn from US6632831B2, “Branched chain amino acid-dependent aminotransferase inhibitors and their use in the treatment of neurodegenerative diseases” (Pfizer Inc., priority 2001, dated 2003).
